In US4379158A, “Antisecretory imidazole amidine compounds, composition and method of use” (Yamanouchi Pharmaceutical Co., Ltd., priority 1977, dated 1983):
Structures can show the parent of a compound that is named as a salt.

Assays:
[1] = target: T1, Histamine H2-receptor (Cavia porcellus, UniProt P47747); assay: Histamine H2-receptor blocking activity of test compounds in isolated guinea-pig atria (histamine-induced tachycardia); format: cell-based, guinea-pigs; conditions: 5×10^-6 M histamine, Krebs-Henseleit solution, 36° C., mean ± S.E. from 5 experiments, read-out: ED50 (dose producing a 50% blockade of chronotropic action of histamine)
T1 construct: Atrial preparations isolated from guinea-pigs; from tissue; host or cells: isolated guinea-pig atria
T1 sequence (P47747 whole entry): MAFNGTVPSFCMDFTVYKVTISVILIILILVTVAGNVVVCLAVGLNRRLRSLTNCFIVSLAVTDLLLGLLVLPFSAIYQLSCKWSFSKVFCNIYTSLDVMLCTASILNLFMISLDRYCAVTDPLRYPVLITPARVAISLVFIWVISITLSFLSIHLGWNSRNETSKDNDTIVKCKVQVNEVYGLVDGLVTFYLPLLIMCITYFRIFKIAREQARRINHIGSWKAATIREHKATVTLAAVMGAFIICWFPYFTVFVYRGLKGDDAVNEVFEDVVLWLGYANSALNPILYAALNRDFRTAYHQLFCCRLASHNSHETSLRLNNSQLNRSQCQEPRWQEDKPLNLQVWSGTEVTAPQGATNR
Experimental: Atrial preparations isolated from guinea-pigs were suspended in Krebs-Henseleit solution at 36° C. (Mitchell, I. et al. Europ. J. Pharmacol., 34, 95, 1975). The dose producing a 50% blockade of chronotropic action of 5×10^-6 M histamine was obtained from the dose-respose curve in which the inhibition percentage was plotted semilogarithmically against dose.

[2] = test system: gastric acid secretion; assay: Effect of test compounds on gastric acid secretion in pylorus-ligated rats; format: in vivo; conditions: 50 mg/kg intraduodenal, immediately after pylorus ligation, 7 rats, mean ± S.E., *p < 0.01; for Gastric contents, Volume: control 3.2 ± 0.3; for Gastric contents, Acid output: control 380 ± 40.1
Experimental: Rats weighing about 200 g. were deprived of food for 24 hours and their pylorus was ligated after an abdominal incision under ether anesthesia (Shay, H. et al.: Gastroenterol., 5, 43, 1945). Test compounds were intraduodenally given immediately after the pylorus ligation. The animals were sacrificed 4 hours after drug administration and gastric contents were collected. The gastric juice was titrated with 0.05 N NaOH to pH 7.0 for measurement of acidity.

[3] = test system: H2-receptor; conditions: Ash and Schild 1966; Black et al. 1972; cited from earlier work

Row | Compound | IC50 [1] [µM] | Gastric contents, Volume [2] [ml/4 hours/rat] | Gastric contents, Acid output [2] [μEq/4 hours/rat] | inhibition/antagonism of the effects of histamine on gastric acid secretion and heart rate in isolated atrium (in words) [3]
1 | C#CCN=C(N)CCSCc1nc[nH]c1C [Example 40, N2-Propynyl-3-[(5-methylimidazol-4-yl)methylthio]-propionamidine dihydrochloride] | 2.3 | – | – | –
2 | CN(C)Cc1ccc(CSCCC(N)=NC#N)o1 [Example 41, NCyano-3-[5-(dimethylaminomethyl)furfurylthio]-propionamidine] | 2.1 | 1.5 ± 0.2 | 97 ± 17.2 | –
3 | C#CCN=C(N)CCSCc1ccc(CN(C)C)o1 [Example 42, 3-[5-(Dimethylaminomethyl)furfurylthio]-N2-propynylpropionamidine dihydrochloride] | – | 1.7 ± 0.3 | 137 ± 31.5 | –
4 | COc1ccc(CN(CCN(C)C)c2ccccn2)cc1 [mepyramine] | – | – | – | not inhibited
5 | Cc1[nH]cnc1CSCCC(N)=NC(N)=O [Example 44, N-carbamoyl-3-(4-methyl-5-imidazolylmethylthio)-propionamidine] | 0.9 | 1.4 ± 0.2 | 79 ± 9.0 | –
6 | C/N=C(\S)NCCSCc1[nH]cnc1C [metiamide] | – | – | – | antagonized
